According to US11247976B2, “Synthetic ligands that modulate the activity of the RhlR quorum sensing receptor” (Wisconsin Alumni Research Foundation, priority 2016, dated 2022):
“Also recorded” adds a separate entry of the source. Marks after values point to notes of the source that are not given here.

How the values were obtained:
RhlR = molecular target: T1, RhlR (Pseudomonas aeruginosa, UniProt P54292); test: E. coli RhlR reporter antagonism assay vs 10 μM BHL (JLD271/pJN105R2/pSC11-rhlI*); format: cell-based, P. aeruginosa; conditions: for inhibition at 10 µM: read-out: % inhibition (10 μM), compound at 10 μM in the presence of 10 μM BHL; for inhibition at 10 µM / inhibition at 1000 µM: negative = agonism stronger than 10 μM BHL alone; for inhibition at 1000 µM: read-out: % inhibition (1 mM), compound at 1 mM in the presence of 10 μM BHL
T1 construct: expressed in transfected cells; host or cells: E. coli JLD271 (ΔsdiA) with pJN105R2 (arabinose-induced) and pSC11-rhlI*
T1 sequence (P54292 whole entry): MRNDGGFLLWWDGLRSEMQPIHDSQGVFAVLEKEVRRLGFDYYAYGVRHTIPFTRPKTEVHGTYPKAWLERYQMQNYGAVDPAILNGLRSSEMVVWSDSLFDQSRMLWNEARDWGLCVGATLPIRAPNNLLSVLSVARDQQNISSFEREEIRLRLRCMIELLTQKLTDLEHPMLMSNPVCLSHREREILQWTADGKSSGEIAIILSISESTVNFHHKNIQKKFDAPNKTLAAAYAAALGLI

LasR = molecular target: T2, LasR (Pseudomonas aeruginosa, UniProt P25084); test: Selectivity of RhlR agonism over LasR agonism (E. coli LasR reporter JLD271/pJN105L/pSC11); format: cell-based, P. aeruginosa; conditions: RhlR % activity divided by LasR % activity, > = negligible activity in LasR reporter
T2 construct: expressed in transfected cells; host or cells: E. coli JLD271 (ΔsdiA) with pJN105L and pSC11
T2 sequence (P25084 whole entry): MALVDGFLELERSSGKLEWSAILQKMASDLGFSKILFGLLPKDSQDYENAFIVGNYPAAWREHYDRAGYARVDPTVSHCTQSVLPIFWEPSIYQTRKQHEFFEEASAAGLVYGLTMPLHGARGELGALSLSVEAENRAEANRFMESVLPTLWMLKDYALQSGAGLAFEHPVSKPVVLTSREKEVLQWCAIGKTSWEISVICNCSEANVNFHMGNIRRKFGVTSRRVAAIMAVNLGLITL
Experimental: All media and reagents for bacterial culture were purchased from commercial sources. Bacteria were cultured in Luria-Bertani broth (LB) at 37° C. with shaking at 200 rpm unless otherwise noted. The bacterial reporter strains used for this study were (i) the heterologous E. coli strain JLD271 (ΔsdiA) harboring the RhlR expression plasmid pJN105R2 and the rhlI-lacZ transcriptional fusion reporter pSC11-rhlI*, (ii) the heterologous E. coli strain JLD271 (ΔsdiA) harboring the LasR expression plasmid pJN105L and the […] transcriptional fusion reporter pSC11, and (iii) the P. aeruginosa strain PAO-JP2 (ΔlasrhlI) harboring the rhlI-gfp transcriptional fusion reporter prhlI-LVAgfp. Reporter strains JLD271/pJN105R2/pSC11-rhlI* and JLD271/pJN105L/pSC11 were grown in LB containing 100 μg/mL ampicillin and 10 μg/mL gentamicin. Freezer stocks of bacterial strains were maintained at −80° C. in 1:1 LB:50% glycerol.
To evaluate the modulatory activities of library compounds on RhlR and LasR using E. coli reporters, the strains JLD271/pJN105R2/pSC11-rhlI* and JLD271/pJN105L/pSC11 were used, respectively, as previously described.^38, 51 The following modifications were used in the RhlR agonism reporter assay, non-native compounds (10 μM or 1 mM) were compared to 1 mM BHL as the positive control. Briefly, a subculture was prepared by diluting an overnight culture 1:10 with fresh media containing 100 μg/mL ampicillin and 10 μg/mL gentamicin, and was incubated until it had grown to OD600=0.45. In all assays, L-arabinose was added to a final concentration of 4 mg/mL to induce RhlR expression. For RhlR agonism assays, activities of test compounds were measured relative to 1 mM BHL (the concentration required to induce a maximal level of RhlR activity). For RhlR antagonism assays, test compounds were competed against a concentration of BHL approximately equal to its EC50 value (10 μM). Activity was measured relative to 10 μM BHL. Inhibition was calculated by subtracting 100% from the relative activity value. Thus, 0% inhibition mimics represents no competitive displacement of 10 μM BHL by a test compound. In all assays, modifications were made to the standard Miller assay protocol to accommodate the use of the chlorophenol red-β-D-galactopyranoside (CPRG) β-galactosidase substrate. After cell lysis, 150 μL of the aqueous layer was transferred from each well of a solvent-resistant 96-well microtiter plate to the wells of a new clear, flat-bottom 96-well microtiter plate. CPRG (4 mg/mL in phosphate-buffered saline) was added to each well in 25 μL volumes. Plates were incubated at 30° C. until the positive control wells developed a red color (approximately 30 min). The amount of processed CPRG substrate was assessed by measuring the absorbance of each well at 570 nm. Enzymatic activity was calculated using the following equation: adjusted Miller units=1000·Abs570/(OD600·t·V),
LasR assays were processed using the protocol for the substrate ortho-nitrophenyl-β-galactoside (ONPG) as previously described elsewhere.^53; and LasR antagonism assays were performed versus the EC50 for OdDHL (2 nM).
The selectivity of certain compounds for RhlR over LasR was measured using a LasR reporter strain (details above). Table 6 provides a comparison of selectivity of RhlR agonism over LasR agonism for exemplary compounds. Table 7 provides a comparison of selectivity of RhlR antagonism over LasR antagonism for exemplary compounds.

SMILES | inhibition at 10 µM (RhlR) [%] | inhibition at 1000 µM (RhlR) [%] | Fold selectivity of RhlR agonists over LasR agonism (LasR; tested concentration 1 mM) | Fold selectivity of RhlR agonists over LasR agonism (LasR; tested concentration 10 μm) | RhlR antagonist activity in words (RhlR; E. coli reporter vs 10 μM BHL) | Maximum Inhibition (%) (RhlR; E. coli reporter, relative to activation of 10 μM BHL alone)
CC(C)CC(=O)N[C@H]1CCSC1=O [RN37] | -59 | -81 | 13 fold | >85^b fold |  | 
CC(C)CC(=O)N[C@H]1CCCC1=O [RN36] | -35 | -122 | >84^b fold | 105^ fold |  | 
O=C(N[C@H]1CCCC1=O)C1CCC1 [RN12] | -39 | -98 | 6.8 fold | >56^b fold |  | 
O=C(COc1ccc(I)cc1)N[C@H]1CCSC1=O [RN22] | 28 |  |  |  | potent antagonist activity; also recorded: activity comparable to previously identified compound E22 | 81
